Laboratory results published in paper PMC5218480 (PLoS ONE, 2017).

System: MV-4-11 cells
Assay: Gene expression microarray analysis (Affymetrix PrimeView) and GSEA
Format: cell-based, human
Set-up: RFU PODN (11730768_x_at) / Fold change /veh PODN (11730768_x_at) / RFU LINC00158 (11744669_a_at) / Fold change /veh LINC00158 (11744669_a_at) / RFU DUSP10 (11751237_a_at) / Fold change /veh DUSP10 (11751237_a_at) / RFU ID3 (11757404_x_at) / Fold change /veh ID3 (11757404_x_at) / RFU PLEKHG5 (11737974_s_at) / Fold change /veh PLEKHG5 (11737974_s_at) / RFU LRRC4B (11730491_at) / Fold change /veh LRRC4B (11730491_at) / RFU GIMAP4 (11747438_a_at) / Fold change /veh GIMAP4 (11747438_a_at) / RFU KRT8 (11758183_x_at) / Fold change /veh KRT8 (11758183_x_at) / RFU CNN1 (11734310_a_at) / Fold change /veh CNN1 (11734310_a_at) / RFU VPS37D (11726825_at) / Fold change /veh VPS37D (11726825_at) / RFU C10orf10 (11716522_x_at) / Fold change /veh C10orf10 (11716522_x_at) / RFU KIR2DL2 /// KIR2DL4 /// KIR2DL5A /// KIR2DL5B /// KIR2DS1 /// KIR2DS2 /// KIR2DS3 /// KIR2DS4 /// KIR3DL3 /// KIR3DL3 /// KIR3DS1 (11738374_at) / Fold change /veh KIR2DL2 /// KIR2DL4 /// KIR2DL5A /// KIR2DL5B /// KIR2DS1 /// KIR2DS2 /// KIR2DS3 /// KIR2DS4 /// KIR3DL3 /// KIR3DL3 /// KIR3DS1 (11738374_at) / RFU C1QL1 (11718748_at) / Fold change /veh C1QL1 (11718748_at) / RFU TMPRSS4 (11747572_a_at) / Fold change /veh TMPRSS4 (11747572_a_at) / RFU HAMP (11756126_x_at) / Fold change /veh HAMP (11756126_x_at) / RFU RNFT2 (11725882_a_at) / Fold change /veh RNFT2 (11725882_a_at) / RFU NR4A2 (11747474_a_at) / Fold change /veh NR4A2 (11747474_a_at) / RFU ABCC12 (11746883_a_at) / Fold change /veh ABCC12 (11746883_a_at) / RFU TMEM136 (11760407_x_at) / Fold change /veh TMEM136 (11760407_x_at) / RFU CLDN22 /// WWC2 (11732394_at) / Fold change /veh CLDN22 /// WWC2 (11732394_at) / RFU HLA-DPB1 (11760878_x_at) / Fold change /veh HLA-DPB1 (11760878_x_at) / RFU SPINT1 (11716480_a_at) / Fold change /veh SPINT1 (11716480_a_at) / RFU GAP43 (11754022_s_at) / Fold change /veh GAP43 (11754022_s_at) / RFU A4GNT (11735810_at) / Fold change /veh A4GNT (11735810_at) / RFU PRB3 (11715151_x_at) / Fold change /veh PRB3 (11715151_x_at) / RFU TUBB4B (11761932_at) / Fold change /veh TUBB4B (11761932_at) / RFU CAPN14 (11732068_a_at) / Fold change /veh CAPN14 (11732068_a_at) / RFU TMCC2 (11721928_a_at) / Fold change /veh TMCC2 (11721928_a_at) / RFU IRGQ (11745062_a_at) / Fold change /veh IRGQ (11745062_a_at) / RFU FAM174B (11720279_a_at) / Fold change /veh FAM174B (11720279_a_at) / RFU TMPRSS4 (11748680_a_at) / Fold change /veh TMPRSS4 (11748680_a_at) / RFU FAM212B (11763350_a_at) / Fold change /veh FAM212B (11763350_a_at) / RFU PLEKHG5 (11743358_a_at) / Fold change /veh PLEKHG5 (11743358_a_at) / RFU ZSCAN30 (11745921_a_at) / Fold change /veh ZSCAN30 (11745921_a_at) / RFU CMKLR1 (11741424_a_at) / Fold change /veh CMKLR1 (11741424_a_at) / RFU LOC101060620 /// MAPK8IP1 (11723275_at) / Fold change /veh LOC101060620 /// MAPK8IP1 (11723275_at) / RFU SPTSSB (11747773_x_at) / Fold change /veh SPTSSB (11747773_x_at) / RFU PRSS12 (11739890_at) / Fold change /veh PRSS12 (11739890_at) / RFU BIN1 (11741810_x_at) / Fold change /veh BIN1 (11741810_x_at) / RFU WNT11 (11732464_a_at) / Fold change /veh WNT11 (11732464_a_at) / RFU C10orf10 (11716521_a_at) / Fold change /veh C10orf10 (11716521_a_at) / RFU C5orf56 (11738089_at) / Fold change /veh C5orf56 (11738089_at) / RFU CYB561 (11721691_x_at) / Fold change /veh CYB561 (11721691_x_at) / RFU ANKRD19P (11752326_a_at) / Fold change /veh ANKRD19P (11752326_a_at) / RFU OR2T12 /// OR2T33 /// OR2T8 (11738714_s_at) / Fold change /veh OR2T12 /// OR2T33 /// OR2T8 (11738714_s_at) / RFU VCAN (11748164_a_at) / Fold change /veh VCAN (11748164_a_at) / RFU JSRP1 (11732532_at) / Fold change /veh JSRP1 (11732532_at) / RFU KRTAP10-11 (11738290_x_at) / Fold change /veh KRTAP10-11 (11738290_x_at) / RFU MYO3A (11730013_a_at) / Fold change /veh MYO3A (11730013_a_at) / RFU EBF3 (11725865_a_at) / Fold change /veh EBF3 (11725865_a_at) / RFU CAMK2N1 (11719241_x_at) / Fold change /veh CAMK2N1 (11719241_x_at) / RFU C5orf56 (11738088_a_at) / Fold change /veh C5orf56 (11738088_a_at) / RFU OLFML3 (11715873_a_at) / Fold change /veh OLFML3 (11715873_a_at) / RFU LOC100653217 /// NTM (11731650_a_at) / Fold change /veh LOC100653217 /// NTM (11731650_a_at) / RFU MAPK11 (11762145_a_at) / Fold change /veh MAPK11 (11762145_a_at) / RFU FIZ1 (11724087_x_at) / Fold change /veh FIZ1 (11724087_x_at) / RFU OASL (11726364_x_at) / Fold change /veh OASL (11726364_x_at) / RFU SOX15 (11748057_x_at) / Fold change /veh SOX15 (11748057_x_at) / RFU CD79A (11719716_a_at) / Fold change /veh CD79A (11719716_a_at) / RFU HIST1H1D (11736915_at) / Fold change /veh HIST1H1D (11736915_at) / RFU CASKIN2 (11723855_a_at) / Fold change /veh CASKIN2 (11723855_a_at) / RFU LOC730098 (11760151_x_at) / Fold change /veh LOC730098 (11760151_x_at) / RFU OR4N2 (11742367_at) / Fold change /veh OR4N2 (11742367_at) / RFU PRRT2 (11749266_a_at) / Fold change /veh PRRT2 (11749266_a_at) / RFU SNX32 (11753110_a_at) / Fold change /veh SNX32 (11753110_a_at) / RFU CDHR5 (11726645_a_at) / Fold change /veh CDHR5 (11726645_a_at) / RFU RCAN1 (11760418_a_at) / Fold change /veh RCAN1 (11760418_a_at) / RFU FAM167A (11723789_a_at) / Fold change /veh FAM167A (11723789_a_at) / RFU FAM26E (11764081_at) / Fold change /veh FAM26E (11764081_at) / RFU ISYNA1 (11749810_s_at) / Fold change /veh ISYNA1 (11749810_s_at) / RFU ACY1 (11761880_at) / Fold change /veh ACY1 (11761880_at) / RFU 11764098_at / Fold change /veh 11764098_at / RFU SAMD14 (11745864_x_at) / Fold change /veh SAMD14 (11745864_x_at) / RFU NPB (11741838_a_at) / Fold change /veh NPB (11741838_a_at) / RFU TMPRSS6 (11731388_a_at) / Fold change /veh TMPRSS6 (11731388_a_at) / RFU KRTAP10-2 (11738614_at) / Fold change /veh KRTAP10-2 (11738614_at) / RFU ARHGAP8 /// PRR5-ARHGAP8 (11727945_x_at) / Fold change /veh ARHGAP8 /// PRR5-ARHGAP8 (11727945_x_at) / RFU KRTAP5-7 /// NADSYN1 (11734609_at) / Fold change /veh KRTAP5-7 /// NADSYN1 (11734609_at) / RFU RASL12 (11751679_a_at) / Fold change /veh RASL12 (11751679_a_at) / RFU CDKN2B (11736163_a_at) / Fold change /veh CDKN2B (11736163_a_at) / RFU PRF1 (11729649_at) / Fold change /veh PRF1 (11729649_at) / RFU, ZNF638 /// ZNF638-IT1 / Fold change vs veh, ZNF638 /// ZNF638-IT1 / RFU, PANK3 / Fold change vs veh, PANK3 / RFU, SH3YL1 / Fold change vs veh, SH3YL1 / RFU, ZEB2 / Fold change vs veh, ZEB2 / RFU, NRIP1 / Fold change vs veh, NRIP1 / RFU, PTTG1IP / Fold change vs veh, PTTG1IP / RFU, CAPN2 / Fold change vs veh, CAPN2 / RFU, MED14 / Fold change vs veh, MED14 / RFU, SNORA58 / Fold change vs veh, SNORA58 / RFU, C1orf63 / Fold change vs veh, C1orf63 / RFU, LRRFIP1 / Fold change vs veh, LRRFIP1 / RFU, NDUFAF7 / Fold change vs veh, NDUFAF7 / RFU, SLC12A2 / Fold change vs veh, SLC12A2 / RFU, IBTK / Fold change vs veh, IBTK / RFU, ESF1 / Fold change vs veh, ESF1 / Fold change vs veh, TMEM50B / RFU, TAOK1 / Fold change vs veh, TAOK1 / RFU, ACBD3 / Fold change vs veh, ACBD3 / RFU, TMA16 / Fold change vs veh, TMA16 / RFU, RWDD3 / Fold change vs veh, RWDD3 / RFU, BCAT1 / Fold change vs veh, BCAT1 / RFU, EDEM3 / Fold change vs veh, EDEM3 / RFU, TMEM33 / Fold change vs veh, TMEM33 / RFU, WDR75 / Fold change vs veh, WDR75 / RFU, AHCTF1 / Fold change vs veh, AHCTF1 / RFU, TFRC / Fold change vs veh, TFRC / RFU, ZDHHC17 / Fold change vs veh, ZDHHC17 / RFU, NOM1 / Fold change vs veh, NOM1 / RFU, ARL8B / Fold change vs veh, ARL8B / RFU, ZBTB11 / Fold change vs veh, ZBTB11 / RFU, TAMM41 / Fold change vs veh, TAMM41 / RFU, KIAA1704 /// LOC100996395 / Fold change vs veh, KIAA1704 /// LOC100996395 / RFU, ING1 / Fold change vs veh, ING1 / RFU, TRMT61B / Fold change vs veh, TRMT61B / RFU, FUBP3 / Fold change vs veh, FUBP3 / RFU, TP53 / Fold change vs veh, TP53 / RFU, TNKS2 / Fold change vs veh, TNKS2 / RFU, ZFP14 / Fold change vs veh, ZFP14 / RFU, ACTR2 / Fold change vs veh, ACTR2 / RFU, PPP3R1 / Fold change vs veh, PPP3R1 / RFU, PIK3R1 / Fold change vs veh, PIK3R1 / RFU, HNRNPA1 / Fold change vs veh, HNRNPA1 / RFU, RNF170 / Fold change vs veh, RNF170 / RFU, ZNF28 / Fold change vs veh, ZNF28 / RFU, RNGTT / Fold change vs veh, RNGTT / RFU, OGT / Fold change vs veh, OGT / RFU, BRD1 / Fold change vs veh, BRD1 / RFU, MARS / Fold change vs veh, MARS / RFU, ZNF655 / Fold change vs veh, ZNF655 / RFU, FAHD1 / Fold change vs veh, FAHD1 / RFU, BDP1 / Fold change vs veh, BDP1 / RFU, LRRCC1 / Fold change vs veh, LRRCC1 / RFU, ARID1A / Fold change vs veh, ARID1A / RFU, ZNF146 / Fold change vs veh, ZNF146 / RFU, ZNF330 / Fold change vs veh, ZNF330 / RFU, GPN3 / Fold change vs veh, GPN3 / RFU, C9orf123 / Fold change vs veh, C9orf123 / RFU, N4BP2L2 / Fold change vs veh, N4BP2L2 / RFU, ARFIP1 / Fold change vs veh, ARFIP1 / RFU, FAM179B / Fold change vs veh, FAM179B / RFU, BCL10 / Fold change vs veh, BCL10 / RFU, UHRF1BP1L / Fold change vs veh, UHRF1BP1L / RFU, BET1 / Fold change vs veh, BET1 / RFU, CNOT2 / Fold change vs veh, CNOT2 / RFU, ZNF268 / Fold change vs veh, ZNF268 / Fold change vs veh, ZNF507 / RFU, DGCR2 / Fold change vs veh, DGCR2 / RFU, WDSUB1 / Fold change vs veh, WDSUB1 / Fold change vs veh, HSP90B1 /// MIR3652 / RFU, ADSS / Fold change vs veh, ADSS / RFU, GK / Fold change vs veh, GK / RFU, ZNF148 / Fold change vs veh, ZNF148 / RFU, TAF9 / Fold change vs veh, TAF9 / RFU, SLC1A5 / Fold change vs veh, SLC1A5 / RFU, SLMO2 / Fold change vs veh, SLMO2 / RFU, ABCC4 / Fold change vs veh, ABCC4 / RFU, LOC101060439 /// RAP1B / Fold change vs veh, LOC101060439 /// RAP1B / RFU, RFX7 / Fold change vs veh, RFX7 / RFU, GTPBP10 / Fold change vs veh, GTPBP10 / RFU, CNEP1R1 / Fold change vs veh, CNEP1R1 / RFU, BIVM-ERCC5 /// ERCC5 / Fold change vs veh, BIVM-ERCC5 /// ERCC5 / RFU, ILF3 / Fold change vs veh, ILF3 / RFU 11762660_at / Fold change /veh 11762660_at / RFU VCAN (11757783_s_at) / Fold change /veh VCAN (11757783_s_at) / RFU DDX43 (11728927_at) / Fold change /veh DDX43 (11728927_at) / RFU KRT8 (11758188_x_at) / Fold change /veh KRT8 (11758188_x_at) / RFU NKD1 (11759106_at) / Fold change /veh NKD1 (11759106_at) / RFU SRD5A1 (11742802_a_at) / Fold change /veh SRD5A1 (11742802_a_at) / RFU TPSAB1 /// TPSB2 (11721975_s_at) / Fold change /veh TPSAB1 /// TPSB2 (11721975_s_at) / RFU GSTM3 (11746129_a_at) / Fold change /veh GSTM3 (11746129_a_at) / RFU IL23R (11737362_x_at) / Fold change /veh IL23R (11737362_x_at) / RFU TMEM51 (11727254_a_at) / Fold change /veh TMEM51 (11727254_a_at) / RFU PIWIL2 (11732686_x_at) / Fold change /veh PIWIL2 (11732686_x_at) / RFU ORM1 (11744905_x_at) / Fold change /veh ORM1 (11744905_x_at) / RFU CCDC152 (11743942_at) / Fold change /veh CCDC152 (11743942_at) / RFU ECM1 (11717891_a_at) / Fold change /veh ECM1 (11717891_a_at) / RFU IL23R (11748794_a_at) / Fold change /veh IL23R (11748794_a_at) / RFU TNFAIP8L3 (11732012_x_at) / Fold change /veh TNFAIP8L3 (11732012_x_at) / RFU MBOAT4 (11741988_at) / Fold change /veh MBOAT4 (11741988_at) / RFU 11764193_at / Fold change /veh 11764193_at / RFU TMEM53 (11763286_at) / Fold change /veh TMEM53 (11763286_at) / RFU MAGEB2 (11727129_at) / Fold change /veh MAGEB2 (11727129_at) / RFU TMEM200A (11744735_a_at) / Fold change /veh TMEM200A (11744735_a_at) / RFU CCDC152 (11751479_a_at) / Fold change /veh CCDC152 (11751479_a_at) / RFU FAM211A (11726209_a_at) / Fold change /veh FAM211A (11726209_a_at) / RFU RGS16 (11746705_a_at) / Fold change /veh RGS16 (11746705_a_at) / RFU VCAN (11755009_s_at) / Fold change /veh VCAN (11755009_s_at) / RFU RHOB (11743442_s_at) / Fold change /veh RHOB (11743442_s_at) / RFU RGS16 (11720943_a_at) / Fold change /veh RGS16 (11720943_a_at) / RFU RGS16 (11720944_at) / Fold change /veh RGS16 (11720944_at) / RFU, VPS4B / Fold change vs veh, VPS4B / RFU, CREB1 / Fold change vs veh, CREB1 / RFU, DNAJC13 / Fold change vs veh, DNAJC13 / RFU, GNAQ / Fold change vs veh, GNAQ / RFU, CDK5R1 / Fold change vs veh, CDK5R1 / RFU, ZRANB3 / Fold change vs veh, ZRANB3 / RFU, CUL4A / Fold change vs veh, CUL4A / RFU, CCNY / Fold change vs veh, CCNY / RFU, UFL1 / Fold change vs veh, UFL1 / RFU, COG3 / Fold change vs veh, COG3 / RFU, DIAPH2 / Fold change vs veh, DIAPH2 / RFU, SKA2 / Fold change vs veh, SKA2 / RFU, AFF3 / Fold change vs veh, AFF3 / RFU, LMF1 / Fold change vs veh, LMF1 / RFU, IPO11 / Fold change vs veh, IPO11 / RFU, DFFB / Fold change vs veh, DFFB / RFU, FOXP1 / Fold change vs veh, FOXP1 / RFU, CARD8 / Fold change vs veh, CARD8 / RFU, STRN3 / Fold change vs veh, STRN3 / RFU, ADK / Fold change vs veh, ADK / RFU, RASSF2 / Fold change vs veh, RASSF2 / RFU, WIPF1 / Fold change vs veh, WIPF1 / RFU, LARP1B / Fold change vs veh, LARP1B / RFU, RASA1 / Fold change vs veh, RASA1 / RFU, RB1 / Fold change vs veh, RB1 / RFU, PPFIA1 / Fold change vs veh, PPFIA1 / RFU, MAT2A / Fold change vs veh, MAT2A / RFU, CCT5 / Fold change vs veh, CCT5 / RFU, WDR92 / Fold change vs veh, WDR92 / RFU, CUX1 / Fold change vs veh, CUX1 / RFU, TTC7A / Fold change vs veh, TTC7A / RFU, TMEM135 / Fold change vs veh, TMEM135 / RFU, DEPTOR / Fold change vs veh, DEPTOR / RFU, CPM / Fold change vs veh, CPM / RFU, DNAJB6 / Fold change vs veh, DNAJB6 / RFU, CACNA2D3 / Fold change vs veh, CACNA2D3 / RFU, DTX4 / Fold change vs veh, DTX4 / RFU, TFCP2 / Fold change vs veh, TFCP2 / RFU, GMCL1 /// GMCL1P1 / Fold change vs veh, GMCL1 /// GMCL1P1 / RFU, AEBP2 / Fold change vs veh, AEBP2 / RFU, SNHG1 /// SNORD22 /// SNORD25 /// SNORD26 /// SNORD27 /// SNORD28 /// SNORD29 /// SNORD31 / Fold change vs veh, SNHG1 /// SNORD22 /// SNORD25 /// SNORD26 /// SNORD27 /// SNORD28 /// SNORD29 /// SNORD31 / Fold change (Aza/veh), C12orf56 (ProbeSet 11735607_a_at) / Fold change (ACY-1035/veh), C12orf56 (ProbeSet 11735607_a_at) / Fold change (Aza/veh), FGFR1OP (ProbeSet 11751329_s_at) / Fold change (ACY-1035/veh), FGFR1OP (ProbeSet 11751329_s_at) / Fold change (Aza/veh), VPS36 (ProbeSet 11739960_a_at) / Fold change (ACY-1035/veh), VPS36 (ProbeSet 11739960_a_at) / RFU SYPL1 (11715823_x_at) / Fold change /veh SYPL1 (11715823_x_at) / RFU IGFBP7 (11715501_s_at) / Fold change /veh IGFBP7 (11715501_s_at) / RFU REEP3 (11722064_at) / Fold change /veh REEP3 (11722064_at) / RFU IGLL1 (11728026_x_at) / Fold change /veh IGLL1 (11728026_x_at): dose or concentration left out as unconfirmed
Details: MV-4-11 cells, 48 hours

Structure (SMILES): Nc1ccc(-c2cccs2)cc1NC(=O)c1ccc2c(c1)cc(C1CC1)n2CCN1CCOCC1 [ACY-1035]
- Fold change /veh PRB3 (11715151_x_at): 0.95
